Data set [1] addresses NT-3 growth factor receptor (Homo sapiens, UniProt Q16288). In words: Inhibition of recombinant human TRKC (510 to end residues) using GEEPLYWSFPAKKK as substrate incubated for 40 mins in presence of [gamma33P]ATP by scintillation counting based radiometry assay.
Data set [2] relates to BGC-823. The data set can be described thus: Growth inhibition of human BGC-823 cells incubated for 3 days by MTT assay. The settings on record: BGC-823, 72 h, time 3 day. The format is functional.
In data set [3] the test system is MDA-MB-231. The data set can be described thus: Growth inhibition of human MDA-MB-231 cells incubated for 3 days by MTT assay. The settings on record: MDA-MB-231, 72 h, time 3 day. The format is functional.
In data set [4] the test system is L02. The data set can be described thus: Growth inhibition of human L02 cells incubated for 3 days by MTT assay. Format: functional. The note with it: L02, 72 h, time 3 day.
Data set [5] concerns HepG2. In words: Growth inhibition of human HepG2 cells incubated for 3 days by MTT assay. The format is functional. The settings on record: HepG2, 72 h, time 3 day.
Data set [6] can be described thus: Toxicity in NOD-SCID mouse xenografted with […] cells harboring RET C634Y mutant assessed as reduction in body weight at 10 to 30 mg/kg, po administered for 18 days and measured on day 18. Format: organism-based. The note with it: in vivo, 432 h, dose 10-30 mg/kg, time 18 day.
Data set [7] concerns BaF3. The format is functional. The settings on record: Mus musculus, BaF3, 72 h; time 3 day.
In data set [8] the target is Tyrosine-protein kinase Lyn (Homo sapiens, UniProt P07948). The data set can be described thus: Inhibition of recombinant human Lyn using poly(Glu, Tyr) 4:1 as substrate after 40 mins in presence of [gamma-33ATP] by scintillation counting based radiometry assay.
The test system of data set [9] is HGC-27. In words: Growth inhibition of human HGC-27 cells incubated for 3 days by MTT assay. The format is functional. The note with it: HGC-27, 72 h, time 3 day.
In data set [10] the target is Mitogen-activated protein kinase kinase kinase kinase 5 (Homo sapiens, UniProt Q9Y4K4). In words: Inhibition of recombinant human MAP4K5 using myelin basic protein as substrate incubated for 40 mins in presence of [gamma-33ATP by scintillation counting based radiometry assay.
Data set [11] deals with Discoidin domain-containing receptor 2 (Homo sapiens, UniProt Q16832). The data set can be described thus: Inhibition of recombinant human DDR2 (467 to end residues) using KKSRGDYMTMQIG as substrate incubated for 40 mins in presence of [gamma-33ATP] by scintillation counting based radiometry assay.
Data set [12] has as its system NIH3T3. The note with it: Homo sapiens, dose 10-30 mg/kg, time 18.0 day.
Data set [13] addresses Receptor-type tyrosine-protein kinase FLT3 (Homo sapiens, UniProt P36888). In words: Inhibition of recombinant human FLT3 (564 to end residues) using EAIYAAPFAKKK as substrate incubated for 40 mins in presence of [gamma-33ATP] by scintillation counting based radiometry assay.
Data set [14] is described as follows: AUC (0 to t) in Sprague-Dawley rat at 10 mg/kg, po measured upto 24 hrs by LC-MS/MS analysis. The format is ADME, organism-based. Details: route oral, dose 10 mg/kg, time <=24. The settings on record: in vivo.
Data set [15] addresses Serine/threonine-protein kinase Nek9 (Homo sapiens, UniProt Q8TD19). In words: Inhibition of recombinant human NEK9 (1 to 324 residues) using myelin basic protein as substrate measured after 40 mins in presence of [gamma33P]ATP by scintillation counting based radiometry assay.
Data set [16] can be described thus: Tmax in Sprague-Dawley rat at 10 mg/kg, po measured upto 24 hrs by LC-MS/MS analysis. Format: ADME, organism-based. The note with it: in vivo.
Data set [17] addresses Homeodomain-interacting protein kinase 4 (Homo sapiens, UniProt Q8NE63). In words: Inhibition of human HIPK4 using RRRFRPASPLRGPPK as substrate after 40 mins by [gamma-33ATP] radiometric assay.
The species named for data set [18] is Mus musculus. The note with it: NOD-SCID, dose 30.0 mg/kg, time 18.0 day.
Data set [19] is described as follows: Growth inhibition of […] NIH3T3 cells incubated for 3 days by MTT assay. Format: functional. The settings on record: NIH3T3, 72 h; time 3 day.
A short description of data set [20]: Growth inhibition of […] BaF3 cells harboring BCR abl mutant incubated for 3 days by MTT assay. Format: functional. The note with it: BaF3, 72 h; time 3 day.
In data set [21] the target is Ephrin type-A receptor 3 (Homo sapiens, UniProt P29320). The data set can be described thus: Inhibition of recombinant human EphA3 (578 to end residues) using poly(Glu, Tyr) 4:1 as substrate incubated for 40 mins in presence of [gamma-33ATP] by scintillation counting based radiometry assay.

These results are taken from ChEMBL document CHEMBL4765237, “Structural optimization and structure-activity relationship studies of N-phenyl-7,8-dihydro-6H-pyrimido[5,4-b][1,4]oxazin-4-amine derivatives as a new class of inhibitors of RET and its drug resistance mutants” (Eur J Med Chem, 2018).

Active and inactive are the calls of the source. No cut-off for these calls is given here. A value given as a limit tells only on which side of the number the result lay.

Ephrin type-A receptor 3, sequence (P29320 whole entry): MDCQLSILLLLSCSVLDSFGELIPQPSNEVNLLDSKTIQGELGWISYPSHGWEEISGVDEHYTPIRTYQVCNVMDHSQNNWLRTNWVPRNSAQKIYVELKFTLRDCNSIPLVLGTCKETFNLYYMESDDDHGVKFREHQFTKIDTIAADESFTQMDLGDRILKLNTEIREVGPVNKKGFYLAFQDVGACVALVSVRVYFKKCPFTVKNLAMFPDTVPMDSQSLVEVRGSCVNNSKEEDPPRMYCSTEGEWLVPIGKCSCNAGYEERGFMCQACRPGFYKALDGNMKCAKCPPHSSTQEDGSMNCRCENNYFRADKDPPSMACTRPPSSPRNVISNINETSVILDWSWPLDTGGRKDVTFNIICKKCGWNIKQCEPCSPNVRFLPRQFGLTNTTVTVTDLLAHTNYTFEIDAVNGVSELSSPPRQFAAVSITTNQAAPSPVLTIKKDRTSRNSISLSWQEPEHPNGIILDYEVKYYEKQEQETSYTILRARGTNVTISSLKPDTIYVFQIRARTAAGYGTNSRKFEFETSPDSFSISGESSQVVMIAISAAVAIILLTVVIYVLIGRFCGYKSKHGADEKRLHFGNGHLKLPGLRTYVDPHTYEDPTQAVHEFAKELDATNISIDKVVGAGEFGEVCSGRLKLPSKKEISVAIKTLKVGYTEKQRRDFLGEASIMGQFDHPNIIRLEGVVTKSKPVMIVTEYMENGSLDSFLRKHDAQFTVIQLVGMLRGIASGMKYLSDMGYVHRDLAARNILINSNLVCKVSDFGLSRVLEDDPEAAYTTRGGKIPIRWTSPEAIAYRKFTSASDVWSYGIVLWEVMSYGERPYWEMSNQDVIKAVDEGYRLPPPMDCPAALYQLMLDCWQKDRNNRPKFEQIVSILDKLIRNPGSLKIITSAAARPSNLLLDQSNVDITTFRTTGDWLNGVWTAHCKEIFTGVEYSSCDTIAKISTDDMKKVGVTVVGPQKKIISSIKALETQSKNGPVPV
Tyrosine-protein kinase Lyn, sequence (P07948 whole entry): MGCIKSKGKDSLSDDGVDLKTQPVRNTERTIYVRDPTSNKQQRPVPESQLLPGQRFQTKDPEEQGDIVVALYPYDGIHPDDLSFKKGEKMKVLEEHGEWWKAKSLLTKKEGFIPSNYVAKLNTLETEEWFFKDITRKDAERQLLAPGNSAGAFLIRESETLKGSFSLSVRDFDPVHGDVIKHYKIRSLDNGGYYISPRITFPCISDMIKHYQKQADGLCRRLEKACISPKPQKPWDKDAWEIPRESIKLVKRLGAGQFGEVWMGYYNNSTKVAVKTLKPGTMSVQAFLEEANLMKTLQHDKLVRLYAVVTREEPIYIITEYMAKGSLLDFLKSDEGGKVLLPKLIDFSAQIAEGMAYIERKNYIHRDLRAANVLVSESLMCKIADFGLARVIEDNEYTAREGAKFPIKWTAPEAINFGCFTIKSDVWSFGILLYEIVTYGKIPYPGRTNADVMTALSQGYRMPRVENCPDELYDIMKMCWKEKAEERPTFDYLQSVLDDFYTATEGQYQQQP
NT-3 growth factor receptor, sequence (Q16288 whole entry): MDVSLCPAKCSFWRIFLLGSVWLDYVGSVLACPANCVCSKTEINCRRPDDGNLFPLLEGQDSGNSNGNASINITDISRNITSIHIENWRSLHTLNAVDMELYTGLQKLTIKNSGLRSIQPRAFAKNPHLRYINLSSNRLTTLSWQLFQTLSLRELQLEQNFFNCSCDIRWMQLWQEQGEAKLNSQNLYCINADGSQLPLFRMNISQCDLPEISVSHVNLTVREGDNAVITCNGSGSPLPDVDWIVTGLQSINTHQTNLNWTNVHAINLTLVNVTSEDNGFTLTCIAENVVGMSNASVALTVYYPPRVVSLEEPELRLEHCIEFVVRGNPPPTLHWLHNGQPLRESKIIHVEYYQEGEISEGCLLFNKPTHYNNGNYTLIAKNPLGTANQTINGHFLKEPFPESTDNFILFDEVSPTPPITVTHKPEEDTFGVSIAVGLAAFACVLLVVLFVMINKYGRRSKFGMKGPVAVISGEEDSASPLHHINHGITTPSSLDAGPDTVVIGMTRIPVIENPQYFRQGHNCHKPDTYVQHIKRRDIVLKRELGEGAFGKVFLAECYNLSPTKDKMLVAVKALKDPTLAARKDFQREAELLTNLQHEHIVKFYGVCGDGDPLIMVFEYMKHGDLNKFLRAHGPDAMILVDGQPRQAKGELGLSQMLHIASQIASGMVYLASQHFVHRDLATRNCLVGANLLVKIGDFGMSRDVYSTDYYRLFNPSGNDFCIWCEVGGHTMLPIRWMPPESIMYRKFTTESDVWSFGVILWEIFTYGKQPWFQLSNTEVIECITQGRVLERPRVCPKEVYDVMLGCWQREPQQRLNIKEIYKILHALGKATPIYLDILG
Homeodomain-interacting protein kinase 4, sequence (Q8NE63 whole entry): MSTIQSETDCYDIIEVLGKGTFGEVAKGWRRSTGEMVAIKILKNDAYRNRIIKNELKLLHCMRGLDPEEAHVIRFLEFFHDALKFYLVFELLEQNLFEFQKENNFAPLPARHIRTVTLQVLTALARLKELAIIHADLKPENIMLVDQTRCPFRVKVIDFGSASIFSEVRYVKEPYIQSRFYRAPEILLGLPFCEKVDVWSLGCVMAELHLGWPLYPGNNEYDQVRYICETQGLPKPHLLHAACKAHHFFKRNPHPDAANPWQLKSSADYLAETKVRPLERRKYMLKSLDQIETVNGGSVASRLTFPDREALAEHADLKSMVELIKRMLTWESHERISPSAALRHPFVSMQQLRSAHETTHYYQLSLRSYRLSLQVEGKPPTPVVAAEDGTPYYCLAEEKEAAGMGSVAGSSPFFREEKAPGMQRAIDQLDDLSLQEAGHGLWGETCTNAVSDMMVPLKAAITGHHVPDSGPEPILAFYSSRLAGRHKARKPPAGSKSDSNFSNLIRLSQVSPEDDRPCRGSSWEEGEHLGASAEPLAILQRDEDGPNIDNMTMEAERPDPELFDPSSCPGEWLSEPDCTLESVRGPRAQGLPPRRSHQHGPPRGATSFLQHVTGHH
Receptor-type tyrosine-protein kinase FLT3, sequence (P36888 whole entry): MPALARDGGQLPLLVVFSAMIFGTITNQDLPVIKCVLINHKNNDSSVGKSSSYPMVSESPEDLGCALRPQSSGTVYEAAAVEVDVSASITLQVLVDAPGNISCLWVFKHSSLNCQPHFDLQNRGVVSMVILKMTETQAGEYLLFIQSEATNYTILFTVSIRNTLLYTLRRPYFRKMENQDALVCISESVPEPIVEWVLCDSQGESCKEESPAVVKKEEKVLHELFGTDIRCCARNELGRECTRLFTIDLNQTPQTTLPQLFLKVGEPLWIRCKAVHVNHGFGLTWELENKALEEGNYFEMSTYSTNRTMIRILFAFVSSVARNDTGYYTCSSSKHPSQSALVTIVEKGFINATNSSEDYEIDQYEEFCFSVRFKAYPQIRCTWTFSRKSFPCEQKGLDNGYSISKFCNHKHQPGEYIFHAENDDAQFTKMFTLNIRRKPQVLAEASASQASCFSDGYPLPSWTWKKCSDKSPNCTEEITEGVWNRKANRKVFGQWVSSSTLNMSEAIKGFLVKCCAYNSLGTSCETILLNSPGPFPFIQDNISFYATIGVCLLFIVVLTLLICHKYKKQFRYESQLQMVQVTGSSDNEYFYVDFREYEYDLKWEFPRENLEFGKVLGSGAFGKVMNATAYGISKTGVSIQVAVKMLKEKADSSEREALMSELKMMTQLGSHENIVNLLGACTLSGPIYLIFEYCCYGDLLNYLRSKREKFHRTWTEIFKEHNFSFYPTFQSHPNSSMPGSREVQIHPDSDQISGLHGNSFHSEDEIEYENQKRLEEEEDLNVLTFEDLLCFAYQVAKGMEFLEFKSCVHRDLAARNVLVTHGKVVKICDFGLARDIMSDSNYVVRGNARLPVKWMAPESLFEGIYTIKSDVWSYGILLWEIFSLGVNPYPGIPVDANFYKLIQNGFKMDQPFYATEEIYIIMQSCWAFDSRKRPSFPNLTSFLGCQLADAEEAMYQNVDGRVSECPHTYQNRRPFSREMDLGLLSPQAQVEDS
Mitogen-activated protein kinase kinase kinase kinase 5, sequence (Q9Y4K4 whole entry, the tested form may be a part): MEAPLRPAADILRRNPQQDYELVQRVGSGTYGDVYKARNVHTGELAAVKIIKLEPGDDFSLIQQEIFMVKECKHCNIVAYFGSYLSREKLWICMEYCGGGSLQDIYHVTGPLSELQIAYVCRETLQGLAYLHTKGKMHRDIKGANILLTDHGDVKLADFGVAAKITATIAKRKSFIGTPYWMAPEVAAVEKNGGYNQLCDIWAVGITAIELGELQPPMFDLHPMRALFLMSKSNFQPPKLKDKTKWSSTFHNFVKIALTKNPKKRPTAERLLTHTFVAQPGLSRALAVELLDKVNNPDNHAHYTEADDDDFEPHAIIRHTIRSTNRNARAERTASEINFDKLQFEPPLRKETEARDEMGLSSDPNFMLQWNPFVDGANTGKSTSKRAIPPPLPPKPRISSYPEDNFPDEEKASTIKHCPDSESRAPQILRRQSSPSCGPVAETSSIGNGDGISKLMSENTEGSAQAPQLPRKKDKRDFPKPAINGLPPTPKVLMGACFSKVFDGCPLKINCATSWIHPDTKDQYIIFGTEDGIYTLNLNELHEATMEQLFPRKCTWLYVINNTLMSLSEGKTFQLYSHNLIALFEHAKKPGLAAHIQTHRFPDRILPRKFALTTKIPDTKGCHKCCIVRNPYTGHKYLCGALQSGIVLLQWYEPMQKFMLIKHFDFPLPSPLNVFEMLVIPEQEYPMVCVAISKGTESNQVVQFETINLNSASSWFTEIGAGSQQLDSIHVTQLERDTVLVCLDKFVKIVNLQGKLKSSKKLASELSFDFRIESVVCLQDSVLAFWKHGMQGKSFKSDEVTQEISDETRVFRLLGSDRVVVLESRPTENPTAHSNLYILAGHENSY

`CC(C)(C)c1cc(NC(=O)Nc2ccc(Nc3ncnc4c3OCCCN4)cc2)no1`: the IC50 in data set [1] stood at 0.02 µM; in [8], 0.122 µM; in data set [10] it was 0.711 µM; in data set [11], 0.055 µM; in data set [13], 0.013 µM; in data set [15], 1.8 µM. The IC50 in [17] is 0.127 µM; in data set [21], 0.552 µM. Also, the 50% growth inhibitory concentration (GI50) in data set [2] is 8.47 µM; in data set [3] it was above 10 µM; in [4], above 10 µM; in [5], above 10 µM; in data set [7], 1.13 µM; in [9], 5.76 µM. In addition, the 50% growth inhibitory concentration (GI50) in [19] and in data set [20] was above 10 µM throughout. Also, the Activity result in data set [6] is “Non-Toxic”. For the same molecule, the TGI entry in data set [12] is “Dose-dependent effect”. This molecule also gave an AUC(0-t) at 24 h in data set [14] of 441 µg·h/mL. For the same molecule, the time of peak concentration (Tmax) in data set [16] was determined as 15 min. In addition, the inhibition result in [18] is “Active”.
